From ChEMBL document CHEMBL4828727, “Antibacterial and antitumoral properties of 1,2,3-triazolo fused triterpenes and their mechanism of inhibiting the proliferation of HL-60 cells” (Eur J Med Chem, 2021)
Converted amounts (≈) assume the structure as drawn. The source made the active and inactive calls. The calls are words filed in the database; no cut-off is given here.

Experiments:
LN-229 = experiment: Antiproliferative activity against human LN-229 cells assessed as inhibition of cell viability measured after 72 hrs by colorimetric MTS viability assay; type: functional, cell-based; conditions: LN-229, 72 h
HCT-116 = experiment: Antiproliferative activity against human HCT-116 cells assessed as inhibition of cell viability measured after 72 hrs by colorimetric MTS viability assay; type: functional, cell-based; conditions: HCT-116, 72 h
NCI-H460 = experiment: cells; type: functional, cell-based; conditions: Homo sapiens, NCI-H460, 72 h
Description: Antiproliferative activity against human NCI-H460 cells assessed as inhibition of cell viability measured after 72 hrs by colorimetric MTS viability assay

Z-138 = experiment: cells; type: functional, cell-based; conditions: Homo sapiens, Z-138, 72 h
Description: Antiproliferative activity against human Z138 cells assessed as inhibition of cell viability measured after 72 hrs by real-time IncuCyte proliferation analysis

MV4-11 = experiment: cells; type: functional, cell-based; conditions: Homo sapiens, MV4-11, 72 h
Description: Cytotoxicity against human MV4-11cells assessed as inhibition of cell viability measured after 72 hrs by real-time IncuCyte proliferation analysis

HL-60 [1] = experiment: Induction of apoptosis in human HL-60 cells assessed as live cells at 6 uM after 48 hrs by Annexin V-PE/7-AAD dual staining based flow cytometry (reference value: 90.1 to 90.7%); type: functional
HL-60 [2] = experiment: Induction of apoptosis in human HL-60 cells assessed as late apoptotic cells at 6 uM after 48 hrs by Annexin V-PE/7-AAD dual staining based flow cytometry (reference value: 3.93%); type: functional
HL-60 [3] = experiment: Induction of apoptosis in human HL-60 cells assessed as early apoptotic cells at 8 uM after 48hrs by Annexin V-PE/7-AAD dual staining based flow cytometry (reference value: 1.72 to 3.25%); type: functional
HL-60 [4] = experiment: Induction of apoptosis in human HL-60 cells assessed as late apoptotic cells at 8 uM after 48 hrs by Annexin V-PE/7-AAD dual staining based flow cytometry (Rvb =3.93%); type: functional
HL-60 [5] = experiment: Induction of apoptosis in human HL-60 cells assessed as necrotic cells at 10 uM after 48 hrs by Annexin V-PE/7-AAD dual staining based flow cytometry (reference value: 2.64 to 3.64%); type: functional
HL-60 [6] = experiment: Induction of apoptosis in human HL-60 cells assessed as live cells at 8 uM in presence of 3-MA after 48 hrs by Annexin V-PE/7-AAD dual staining based flow cytometry (reference value: 91.1%); type: functional
HL-60 [7] = experiment: Induction of apoptosis in human HL-60 cells assessed as early apoptotic cells at 8 uM in presence of 3-MA after 48 hrs by Annexin V-PE/7-AAD dual staining based flow cytometry (reference value: 3.14%); type: functional
HL-60 [8] = experiment: Induction of apoptosis in human HL-60 cells assessed as necrotic cells at 10 uM in presence of 3-MA after 48 hrs by Annexin V-PE/7-AAD dual staining based flow cytometry (reference value: 2.62%); type: functional
HL-60 [9] = experiment: Induction of mitochondrial membrane potential loss in human HL-60 cells at 8 uM after 48 hrs by JC-1 staining based flow cytometry (reference value: 3.49%); type: functional
Staphylococcus aureus = experiment: Antibacterial activity against Staphylococcus aureus ATCC65385 assessed as growth inhibition after 20 hrs by broth microdilution method; type: functional
Escherichia coli = experiment: Antibacterial activity against Escherichia coli ATCC47076 assessed as growth inhibition after 20 hrs by broth microdilution method; type: functional
[10] = tested on: Salmonella enterica subsp. enterica; experiment: Antibacterial activity against Salmonella enterica subsp.enterica ATCC13076 assessed as growth inhibition after 20 hrs by broth microdilution method; type: functional
HL-60 [11] = experiment: Cell cycle arrest in human HL-60 cells assessed as accumulation of cells at G2/M phase at 8 uM incubated for 48 hrs by propidium iodide based flow cytometric analysis (reference value: 6.61%); type: functional
HL-60 [12] = experiment: Cell cycle arrest in human HL-60 cells assessed as increase in accumulation in G0/G1 phase at 10 uM incubated for 48 hrs by propidium iodide based flow cytometric analysis (Rvb =64.97%); type: functional
HL-60 [13] = experiment: Induction of autophagy in human HL-60 cells assessed as fold increase in MDC fluorescence intensity at 10 uM measured after 48 hrs by flow cytometry relative to control; type: functional

COc1ccc2[nH]cc(CCn3nnc4c3C(C)(C)[C@@H]3CC[C@]5(C)[C@H](CC=C6[C@@H]7CC(C)(C)CC[C@]7(C(=O)O)CC[C@]65C)[C@@]3(C)C4)c2c1
IC50 (LN-229): 44.1 µM | IC50 (HCT-116): 15.2 µM | IC50 (NCI-H460): 12.5 µM | IC50 (Z-138): 11.3 µM | IC50 (MV4-11): 12.8 µM | Activity (HL-60 [1]): 80% | Activity (HL-60 [2]): 6.26% | Activity (HL-60 [3]): 4.97% | Activity (HL-60 [4]): 34.3% | Activity (HL-60 [5]): 0.628% | Activity (HL-60 [6]): 68.9% | Activity (HL-60 [7]): 20% | Activity (HL-60 [8]): 0.317% | Activity (HL-60 [9]): 33.9% | MIC50 (Staphylococcus aureus): 32.3 µg/mL (≈ 49.5 µM) | MIC50 (Escherichia coli): 413 µg/mL (≈ 632 µM) | MIC50 [10]: inactive | Activity (HL-60 [11]): 5.02% | Activity (HL-60 [12]): 85.45% | fold change (FC) (HL-60 [13]): 2
